From PMC9849758, “Chemically diverse activity-based probes with unexpected inhibitory mechanisms targeting trypsin-like serine proteases” (Frontiers in Chemistry, 2023)
Where two headings read alike, the source gives them in different places.

Assays:
Assay type in all cases: biochemical
[1] = molecular target: T1, TLCK-treated pancreatic bovine chymotrypsin (Bos taurus, UniProt P00766); assay: IC50 determination, spectrophotometric protease assay
T1 construct: TLCK-treated pancreatic bovine chymotrypsin (Sigma-Aldrich); purchased Sigma-Aldrich; host or cells: bovine pancreas
Procedure: (§1) The IC50 values were determined using a spectrophotometric assay. All the experiments were conducted in duplicate. The readout consisted of evaluating the protease-mediated release of the chromophore para-nitroaniline (pNA) or fluorophore 7-amino-4-methyl coumarin (AMC) moieties from the respective substrates. Enzymatic activity was measured for 30 min at 37°C. All compounds were initially screened at three concentrations (10, 1, and .1 μM) to estimate the range of the IC50 value. Those which were able to reduce protease activity by at least 50% at a concentration of 10 μM were submitted to an exact IC50 determination. […] A third independent experiment was performed when the standard deviation of the two independent experiments was higher than […]. IC50 values were obtained by fitting the data with the four-parameter logistics equation using GraphPad Prism 9.
(§2) The conditions for each protease are described as follows, the concentration of substrate used was at the corresponding Km.

[2] = molecular target: T2, Trypsin-3 (recombinant trypsin-3) (Homo sapiens, UniProt P35030); assay: as above
T2 construct: purchased R&D
T2 sequence (P35030 1-304): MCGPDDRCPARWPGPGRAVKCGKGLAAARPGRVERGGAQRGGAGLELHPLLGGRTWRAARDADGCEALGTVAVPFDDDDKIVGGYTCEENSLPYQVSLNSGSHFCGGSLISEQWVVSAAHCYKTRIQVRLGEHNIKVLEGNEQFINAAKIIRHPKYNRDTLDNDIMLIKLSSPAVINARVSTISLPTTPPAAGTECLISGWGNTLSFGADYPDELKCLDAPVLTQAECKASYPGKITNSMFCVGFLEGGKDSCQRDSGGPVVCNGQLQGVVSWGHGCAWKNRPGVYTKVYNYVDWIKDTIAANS
Procedure: as §1, §2

[3] = molecular target: T3, Cathepsin G (cathepsin G human neutrophil) (Homo sapiens, UniProt P08311); assay: as above
T3 construct: Cathepsin G (cathepsin G human neutrophil, Sigma-Aldrich); purchased Sigma-Aldrich; host or cells: human neutrophil
T3 sequence (P08311 21-255): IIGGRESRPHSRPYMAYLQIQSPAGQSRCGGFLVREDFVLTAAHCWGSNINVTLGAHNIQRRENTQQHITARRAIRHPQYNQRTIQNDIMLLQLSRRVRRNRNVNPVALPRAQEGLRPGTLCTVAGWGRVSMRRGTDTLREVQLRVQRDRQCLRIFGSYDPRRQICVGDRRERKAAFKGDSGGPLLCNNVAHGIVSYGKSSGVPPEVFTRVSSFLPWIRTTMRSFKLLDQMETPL
Procedure: as §1, §2

[4] = molecular target: T4, uPA (recombinant urokinase plasminogen activator) (Homo sapiens, UniProt P00749); assay: as above
T4 construct: purchased HYPHEN BioMed
Procedure: as §1, §2

[5] = molecular target: T5, Thrombin (recombinant thrombin) (Homo sapiens, UniProt P00734); assay: as above
T5 construct: purchased R&D
Procedure: as §1, §2

[6] = molecular target: T6, β-tryptase (recombinant tryptase β-2) (Homo sapiens, UniProt P20231); assay: as above
T6 construct: purchased EnzoLife Sciences
Procedure: as §1, §2

[7] = molecular target: T7, uPA (Homo sapiens, UniProt P00749); assay: Jump dilution, determination of inhibition type; details: inhibitor at 10 times IC50, 15 min, diluted 10-fold or 100-fold; Rev./Irrev.
T7 construct: purchased HYPHEN BioMed
Procedure: The dissociation of the enzyme-inhibitor complex was monitored by substrate hydrolysis over time ([Joossens et al., 2006]).
Because ABPs are designed to be irreversible serine protease inhibitors, the IC50 is exclusively used as a first discriminatory evaluation. When an inhibitor is irreversible, its IC50 value not only depends on the substrate and enzyme concentration but also on the time of incubation with the enzyme before the reaction is started by adding the substrate. […] The progress curve in the presence of an irreversible inhibitor will show final velocities equal to zero (Figure 6C). In contrast, for a reversible inhibitor, progress curves have a non-zero final steady-state velocity (Figure 6A) ([McWhirter, 2021]). To corroborate the inhibitory mechanism of the compounds, jump-dilution assays were performed. These use an inhibitor concentration of 10-fold the IC50 for the incubation, and a posteriori, the reaction mixture is diluted 10-fold or 100-fold before adding the substrate. In the case of an irreversible inhibitor, enzymatic activity is not regained (Figure 6D), whereas, in the case of a reversible compound, a slow release of the inhibitor and a gradual increase of the enzymatic activity rate is observed (Figure 6B) ([Copeland, 2013]; [McWhirter, 2021]). The jump-dilution assays confirmed the behavior described by the progress curves.
2.2.2 Jump dilution results
Supplementary Table 2. Jump dilution of selected alkyne and desthiobiotin probes against a panel of trypsin-like serine proteases. […]
# R R DtBa 3 tryptase Thrombin uPA CatG
32b H Alk Irrev. Irrev. Rev. Irrev. Rev.
45b DtB Irrev. Irrev. Rev. N.D. N.D.
33b Alk Irrev. Irrev. Rev. Irrev. Rev.
46b Cl DtB Irrev. Irrev. Rev. N.D. N.D.
34b H Alk Rev. Rev. Rev. Irrev. Rev.
50b DtB Rev. Rev. Rev. Irrev. Rev.
35b Alk Rev. Rev. Rev. Irrev. Rev.
52b NHCOMe DtB Rev. Rev. Rev. Irrev. Rev.
36b Alk Rev. Rev. Rev. Irrev. Rev.
54b Cl DtB Rev. Rev. Rev. Irrev. Rev.
37b Alk Irrev. Irrev. N.D. Irrev. Irrev.
55b H DtB Irrev. Irrev. N.D. Irrev. Irrev.
38b Alk Irrev. Irrev. N.D. Irrev. Irrev.
56b NHCOMe DtB Irrev. Irrev. N.D. Irrev. Irrev.
39b Alk Irrev. Irrev. N.D. Irrev. Rev.
57b Cl DtB Irrev. Irrev. N.D. Irrev. Rev.
41b H Alk Irrev. Irrev. Irrev. N.D. N.D.
31b Pro-Lys H Alk Irrev. Irrev. Irrev. Irrev. N.D. a Alk: ABP precursor bearing an alkyne; DtB: desthiobiotin probe b Panel of serine proteases abbreviations: urokinase plasminogen activator (uPA), cathepsin G (catG) N.D.: IC50 is greater than 10µM, and jump dilution was not performed
2.2.3 Progress curves and Jump dilution experiments
Kinetic assays were performed in the following manner. The inhibitor was mixed with the substrate, and the buffer solution with the enzyme was added at the time zero. The progress curves show the release of para-nitroaniline (pNA) or 7-amino-4-methyl coumarin (AMC) as a function of time.
To monitor the dissociation of the inhibitor-enzyme, aliquots of the enzyme were incubated at 37 °C without and with the inhibitor at a concentration 10 times higher than its IC 50. The enzyme […]
min, the aliquots were diluted 10-fold or 100-fold into the substrate concentration and assay buffer used for the IC50 determination. The dissociation of the enzyme-inhibitor complex was monitored by substrate hydrolysis over time. Blue lines represent the control where no inhibitor was present. Pink lines represent the assay with inhibitor.

T6 sequence (P20231 31-275): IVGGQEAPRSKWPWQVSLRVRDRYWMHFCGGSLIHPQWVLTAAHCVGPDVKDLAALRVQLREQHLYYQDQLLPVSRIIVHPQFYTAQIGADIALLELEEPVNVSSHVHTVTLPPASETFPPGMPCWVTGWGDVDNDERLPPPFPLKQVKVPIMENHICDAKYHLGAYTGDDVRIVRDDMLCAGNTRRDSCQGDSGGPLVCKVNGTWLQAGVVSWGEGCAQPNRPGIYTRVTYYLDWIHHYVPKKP

Compound	IC50 [1] [µM]	IC50 [2] [µM]	IC50 [3] [µM]	IC50 [4] [µM]	IC50 [5] [µM]	IC50 [6] [µM]	uPA jump dilution result [7]	IC50 ([1]; read-out: ChTryp IC50, desthiobiotin probes, 15 min preincubation at 37°C, mean ± SD) [µM]	IC50 ([2]; read-out: Trypsin-3 IC50, desthiobiotin probes, 15 min preincubation at 37°C, mean ± SD) [µM]	IC50 ([3]; read-out: CatG IC50, desthiobiotin probes, 15 min preincubation at 37°C, mean ± SD) [µM]	IC50 ([4]; read-out: uPA IC50, desthiobiotin probes, 15 min preincubation at 37°C, mean ± SD) [µM]	IC50 ([5]; read-out: Thrombin IC50, desthiobiotin probes, 15 min preincubation at 37°C, mean ± SD) [µM]	IC50 ([6]; read-out: β-tryptase IC50, desthiobiotin probes, 15 min preincubation at 37°C, mean ± SD) [µM]
CC(=O)Nc1ccc(OP(=O)(Oc2ccc(NC(C)=O)cc2)C(Cc2ccc(NC(=N)N)cc2)NC(=O)OCCCc2cn(CCOCCOCCOCCNC(=O)CCCCC[C@H]3NC(=O)N[C@H]3C)nn2)cc1 (stereo partly drawn) [52b]	> 10	0.01 ± 0.001	0.05 ± 0.007	0.01 ± 0.003	0.76 ± 0.02	0.07 ± 0.003	Irrev.	–	–	–	–	–	–
C#CCCCOC(=O)NC(c1ccc(NC(=N)N)cc1)P(=O)(Oc1ccccc1)Oc1ccccc1.O=C(O)C(F)(F)F (stereo not drawn) [37b, Pent-4-yn-1-yl ((diphenoxyphosphoryl)(4-guanidinophenyl)methyl)carbamate trifluoroacetate salt]	> 10	0.23 ± 0.01	0.64 ± 0.03	1.79 ± 0.003	> 10	0.9 ± 0.1	Irrev.	–	–	–	–	–	–
C[C@@H]1NC(=O)N[C@@H]1CCCCCC(=O)NCCOCCOCCOCCn1cc(CCCOC(=O)NC(c2ccc(NC(=N)N)cc2)P(=O)(Oc2ccccc2)Oc2ccccc2)nn1 (stereo partly drawn) [55b]	–	–	–	–	–	–	Irrev.	> 10	0.24 ± 0.01	1.62 ± 0.09	2.22 ± 0.07	> 10	0.37 ± 0.09
